Source: PubChem BioAssay AID328 (DTP/NCI, 2004)
“And” between values parts separate entries of the source, which are not always exact repeats. Identical values can stand only once. Toxic doses and inconclusive results are not listed.

System: BDF1 mice, P388 leukemia ip, median survival T/C
Assay: NCI In Vivo Anticancer Drug Screen. Data for tumor model P388 Leukemia (intraperitoneal) in B6D2F1 (BDF1) mice
Details: endpoint: median survival time, higher = longer survival
Method in brief: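 Mice carrying the transplantable tumour receive compound or vehicle. Survival is followed in each arm, and the treated measure is divided by the vehicle measure.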

[1] = dose: 100.0 mg/kg/injection, schedule: Q01DX009 (ip), vehicle: saline with Tween-80
[2] = dose: 6.25 mg/kg/injection, schedule: Q01DX009 (ip), vehicle: Klucel (hydroxypropylcellulose) (HPC)
[3] = dose: 12.5 mg/kg/injection, schedule: Q01DX009 (ip), vehicle: Klucel (hydroxypropylcellulose) (HPC)
[4] = dose: 50.0 mg/kg/injection, schedule: Q01DX009 (ip), vehicle: Klucel (hydroxypropylcellulose) (HPC)
[5] = dose: 100.0 mg/kg/injection, schedule: Q01DX009 (ip), vehicle: Klucel (hydroxypropylcellulose) (HPC)
[6] = dose: 25.0 mg/kg/injection, schedule: Q01DX009 (ip), vehicle: Klucel (hydroxypropylcellulose) (HPC)
[7] = dose: 25.0 mg/kg/injection, schedule: Q01DX009 (ip), vehicle: saline
[8] = dose: 25.0 mg/kg/injection, schedule: Q04DX003 (ip), vehicle: saline
[9] = dose: 50.0 mg/kg/injection, schedule: Q01DX009 (ip), vehicle: saline
[10] = dose: 50.0 mg/kg/injection, schedule: Q04DX003 (ip), vehicle: saline
[11] = dose: 100.0 mg/kg/injection, schedule: Q04DX003 (ip), vehicle: saline with Tween-80
[12] = dose: 200.0 mg/kg/injection, schedule: Q04DX003 (ip), vehicle: saline with Tween-80
[13] = dose: 400.0 mg/kg/injection, schedule: Q04DX003 (ip), vehicle: saline with Tween-80
[14] = dose: 200.0 mg/kg/injection, schedule: Q01DX009 (ip), vehicle: saline with Tween-80
[15] = dose: 400.0 mg/kg/injection, schedule: Q01DX009 (ip), vehicle: saline with Tween-80
[16] = dose: 100.0 mg/kg/injection, schedule: Q04DX003 (ip), vehicle: Klucel (hydroxypropylcellulose) (HPC)
[17] = dose: 400.0 mg/kg/injection, schedule: Q04DX003 (ip), vehicle: Klucel (hydroxypropylcellulose) (HPC)
[18] = dose: 50.0 mg/kg/injection, schedule: Q01DX009 (ip), vehicle: saline with Tween-80
[19] = dose: 200.0 mg/kg/injection, schedule: Q04DX003 (ip), vehicle: Klucel (hydroxypropylcellulose) (HPC)
[20] = dose: 100.0 mg/kg/injection, schedule: Q01DX009 (ip), vehicle: saline
[21] = dose: 100.0 mg/kg/injection, schedule: Q04DX003 (ip), vehicle: saline
[22] = dose: 200.0 mg/kg/injection, schedule: Q04DX003 (ip), vehicle: saline

SMILES: CC(=O)[O][Pb]([O]C(C)=O)([c]1ccccc1)[c]1ccccc1
- T/C (dose: 44.0 mg/kg/injection, schedule: Q01DX009 (ip), vehicle: saline with Tween-80): 177 % of control
- T/C (dose: 66.0 mg/kg/injection, schedule: Q01DX009 (ip), vehicle: saline with Tween-80): 184 % of control
- T/C [1]: 201 % of control
- T/C (dose: 150.0 mg/kg/injection, schedule: Q01DX009 (ip), vehicle: saline with Tween-80): 93 % of control

SMILES: CCC([NH-])=O.CCC([NH-])=O.[Pt+2]
- T/C (dose: 100.0 mg/kg/injection, schedule: Q04DX003 (ip), vehicle: water): 101 % of control
- T/C (dose: 200.0 mg/kg/injection, schedule: Q04DX003 (ip), vehicle: water): 101 % of control
- T/C (dose: 400.0 mg/kg/injection, schedule: Q04DX003 (ip), vehicle: water): 101 % of control

SMILES: Cc1ccc(S(=O)(=O)N/N=C/C(Br)=C(/Br)C(=O)O)cc1
- T/C [2]: 119 % of control
- T/C [3]: 124 % of control
- T/C [4]: 155 % of control
- T/C [5]: 153 % of control

SMILES: C(=N\Nc1nc2ccccc2s1)/c1ccccc1
- T/C [5]: 95 % of control
- T/C (dose: 200.0 mg/kg/injection, schedule: Q01DX009 (ip), vehicle: Klucel (hydroxypropylcellulose) (HPC)): 109 % of control
- T/C (dose: 400.0 mg/kg/injection, schedule: Q01DX009 (ip), vehicle: Klucel (hydroxypropylcellulose) (HPC)): 90 % of control

SMILES: O=C1C(Br)=CC(=NCl)C=C1Br
- T/C (dose: 3.13 mg/kg/injection, schedule: Q01DX009 (ip), vehicle: Klucel (hydroxypropylcellulose) (HPC)): 118 % of control
- T/C [2]: 112 % of control
- T/C [3]: 120 % of control
- T/C [6]: 103 % of control

SMILES: CCCCCCCCOP(=O)(N1CC1)N1CC1
- T/C (dose: 12.5 mg/kg/injection, schedule: Q04DX003 (ip), vehicle: saline): 170 % of control
- T/C (dose: 14.0 mg/kg/injection, schedule: Q04DX003 (ip), vehicle: saline): 150 % of control
- T/C (dose: 21.0 mg/kg/injection, schedule: Q04DX003 (ip), vehicle: saline): 154 % of control
- T/C [7]: 183 % of control
- T/C [8]: 160 % of control
- T/C (dose: 33.0 mg/kg/injection, schedule: Q01DX009 (ip), vehicle: saline): 211 % of control
- T/C (dose: 33.0 mg/kg/injection, schedule: Q04DX003 (ip), vehicle: saline): 180 % of control and 222 % of control
- T/C [9]: 230 % of control and 250 % of control
- T/C [10]: 242 % of control and 285 % of control
- T/C (dose: 75.0 mg/kg/injection, schedule: Q01DX009 (ip), vehicle: saline): 111 % of control
- T/C (dose: 75.0 mg/kg/injection, schedule: Q04DX003 (ip), vehicle: saline): 285 % of control

SMILES: O=Cc1ccc(C(=O)O)cc1
- T/C [11]: 100 % of control
- T/C [12]: 109 % of control
- T/C [13]: 113 % of control

SMILES: O=C1OC(c2ccc(O)cc2)(c2ccc(Oc3ccccc3)cc2)c2ccccc21 (stereo unspecified)
- T/C [1]: 97 % of control
- T/C [14]: 105 % of control
- T/C [15]: 99 % of control

SMILES: Cc1ccc(S(=O)(=O)N/N=C/c2ccccc2)cc1
- T/C (dose: 25.0 mg/kg/injection, schedule: Q04DX003 (ip), vehicle: Klucel (hydroxypropylcellulose) (HPC)): 93 % of control
- T/C (dose: 50.0 mg/kg/injection, schedule: Q04DX003 (ip), vehicle: Klucel (hydroxypropylcellulose) (HPC)): 97 % of control
- T/C [16]: 103 % of control
- T/C [17]: 106 % of control

SMILES: O=[N+]([O-])c1ccc(S(=O)(=O)N/N=C\c2ccc(Cl)c(Cl)c2)cc1
- T/C (dose: 12.5 mg/kg/injection, schedule: Q01DX009 (ip), vehicle: saline with Tween-80): 95 % of control
- T/C (dose: 25.0 mg/kg/injection, schedule: Q01DX009 (ip), vehicle: saline with Tween-80): 92 % of control
- T/C [18]: 100 % of control

SMILES: Nc1nc2n[nH]nc2c(=O)[nH]1
- T/C (dose: 25.0 mg/kg/injection, schedule: Q01DX010 (ip), vehicle: alkali diluted with saline): 118 % of control
- T/C (dose: 100.0 mg/kg/injection, schedule: Q01DX010 (ip), vehicle: alkali diluted with saline): 165 % of control
- T/C (dose: 200.0 mg/kg/injection, schedule: Q01DX010 (ip), vehicle: alkali diluted with saline): 160 % of control and 163 % of control

SMILES: Cc1ccc(NC(=O)OCCSC(=O)COc2ccc(Cl)cc2Cl)cc1
- T/C [11]: 100 % of control
- T/C [12]: 100 % of control
- T/C [13]: 104 % of control

SMILES: CCOC(=O)/C(C#N)=C/N=c1ccccn1C
- T/C (dose: 6.25 mg/kg/injection, schedule: Q04DX002 (ip), vehicle: saline with Tween-80): 101 % of control
- T/C (dose: 12.5 mg/kg/injection, schedule: Q04DX002 (ip), vehicle: saline with Tween-80): 101 % of control
- T/C (dose: 25.0 mg/kg/injection, schedule: Q04DX002 (ip), vehicle: saline with Tween-80): 101 % of control

SMILES: NOCc1cc2c(cc1Cl)OCO2
- T/C [16]: 95 % of control
- T/C [19]: 100 % of control
- T/C [17]: 113 % of control

SMILES: CC(=O)C1=CN(Cc2ccccc2)C(O)CC1C(N)=O (stereo unspecified)
- T/C [18]: 101 % of control
- T/C [1]: 109 % of control
- T/C [14]: 115 % of control

SMILES: Cn1c2ccccc2c2c3c(ccc21)C(=O)C=CC3=O
- T/C [11]: 113 % of control
- T/C [12]: 102 % of control
- T/C [13]: 121 % of control

SMILES: CCOC(=O)C(CC(OCC)OCC)C(=O)OCC
- T/C [1]: 100 % of control
- T/C [11]: 104 % of control
- T/C [14]: 91 % of control
- T/C [12]: 113 % of control
- T/C [15]: 122 % of control
- T/C [13]: 113 % of control

SMILES: CCOC(=O)c1cnc(N(C)C)[nH]c1=O
- T/C [3]: 103 % of control
- T/C [6]: 95 % of control
- T/C [4]: 86 % of control

SMILES: COc1ccc(/C=C/C(C)=O)cc1OC
- T/C [7]: 94 % of control
- T/C [8]: 107 % of control
- T/C [9]: 99 % of control
- T/C [10]: 106 % of control
- T/C [20]: 110 % of control
- T/C [21]: 105 % of control
- T/C (dose: 200.0 mg/kg/injection, schedule: Q01DX009 (ip), vehicle: saline): 103 % of control
- T/C [22]: 100 % of control
- T/C (dose: 400.0 mg/kg/injection, schedule: Q01DX009 (ip), vehicle: saline): 108 % of control
- T/C (dose: 400.0 mg/kg/injection, schedule: Q04DX003 (ip), vehicle: saline): 107 % of control

SMILES: O=C(O)c1cc(B(O)O)[nH]n1
- T/C (dose: 50.0 mg/kg/injection, schedule: Q01DX001 (ip), vehicle: saline sonified): 104 % of control
- T/C (dose: 100.0 mg/kg/injection, schedule: Q01DX001 (ip), vehicle: saline sonified): 100 % of control
- T/C (dose: 200.0 mg/kg/injection, schedule: Q01DX001 (ip), vehicle: saline sonified): 100 % of control

SMILES: Nc1nc(N)c2cc(NCc3ccccc3Cl)ccc2n1
- T/C (dose: 2.34 mg/kg/injection, schedule: Q04DX003 (ip), vehicle: Klucel (hydroxypropylcellulose) (HPC)): 104 % of control
- T/C (dose: 4.68 mg/kg/injection, schedule: Q04DX003 (ip), vehicle: Klucel (hydroxypropylcellulose) (HPC)): 100 % of control
- T/C [2]: 105 % of control
- T/C (dose: 9.37 mg/kg/injection, schedule: Q04DX003 (ip), vehicle: Klucel (hydroxypropylcellulose) (HPC)): 122 % of control
- T/C [3]: 110 % of control
- T/C (dose: 18.75 mg/kg/injection, schedule: Q04DX003 (ip), vehicle: Klucel (hydroxypropylcellulose) (HPC)): 100 % of control
- T/C [6]: 100 % of control

SMILES: CCOC(=O)c1ccc(=O)n(C(C)C)c1
- T/C [16]: 90 % of control
- T/C [19]: 90 % of control
- T/C [17]: 100 % of control

SMILES: NC(=O)c1ccccc1NC(=O)c1ccccc1C(=O)O
- T/C [18]: 99 % of control
- T/C [1]: 151 % of control
- T/C [14]: 153 % of control

SMILES: N#CCCSC(=S)C1CCCC1=N (stereo unspecified)
- T/C [1]: 112 % of control
- T/C [14]: 102 % of control

SMILES: C=C(C)c1c2ccccc2cc2cccc(Sc3ccccc3)c12
- T/C [1]: 100 % of control
- T/C [14]: 95 % of control
- T/C [15]: 100 % of control

SMILES: CCCCCCCCCCCCCCCC[N+]1(C)CCN(SN2CC[N+](C)(CCCCCCCCCCCCCCCC)CC2)CC1
- T/C [9]: 100 % of control
- T/C [20]: 103 % of control
- T/C [21]: 104 % of control
- T/C [22]: 104 % of control

SMILES: CC12NC(=O)NC1(C)NC(=O)N2 (stereo unspecified)
- T/C [11]: 100 % of control
- T/C [12]: 100 % of control
